Legend:
Format in all cases: biochemical
[1] = molecular target: T1, β5 subunit of the yeast 20S proteasome (Saccharomyces cerevisiae, UniProt P30656); assay: IC50 determination with purified yeast 20S proteasome core particle (yCP), chymotrypsin-like activity, fluorogenic AMC substrate; conditions: yCP 0.05 mg/mL, 100 mM Tris-HCl pH 7.5; 45 min incubation at room temperature; Suc-Leu-Leu-Val-Tyr-AMC 200 µM (ChT-L); triplicate
T1 construct: purified yeast 20S proteasome core particle (yCP); host or cells: yeast
Experimental: (§1) The concentration of purified yCP was determined spectrophotometrically at 280 nm. yCP (final concentration: 0.05 mg/mL in 100 mM Tris-HCI, pH 7.5) was mixed with DMSO as a control or serial dilutions of the compound 1 in DMSO, thereby not surpassing a final concentration of 10% (v/v) DMSO. After an incubation time of 45 min at room temperature, fluorogenic substrates Boc-Leu-Arg-Arg-AMC, Z-Leu-Leu-Glu-AMC, and Suc-Leu-Leu-Val-Tyr-AMC (final concentration of 200 µM) were added to measure the residual activity of […], and chymotrypsin-like (ChT-L, β5 subunit), respectively. The assay mixture was incubated for another 60 min at RT and afterward diluted 1:10 in 20 mM Tris-HCI, pH 7.5. The AMC-molecules released by hydrolysis were measured in triplicate with a Varian Cary Eclipse Fluorescence Spectrophotometer (Agilent Technologies) at λexc = 360 nm and λem = 460 nm. Relative fluorescence units were normalized to the DMSO treated control. The calculated residual activities were plotted against the logarithm of the applied inhibitor concentration and fitted with GraphPad Prism 9. Half maximum inhibitory concentration (IC50) values were deduced from the fitted data.

[2] = molecular target: T2, β1 subunit of the yeast 20S proteasome (Saccharomyces cerevisiae, UniProt P38624); assay: IC50 determination with purified yeast 20S proteasome core particle (yCP), caspase-like activity, fluorogenic AMC substrate; conditions: yCP 0.05 mg/mL, 100 mM Tris-HCl pH 7.5; 45 min incubation at room temperature; fluorogenic substrate 200 µM, caspase-like (C-L); read-out: binding affinities for β1
T2 construct: purified yeast 20S proteasome core particle (yCP); host or cells: yeast
Experimental: as §1

[3] = molecular target: T3, β2 subunit of the yeast 20S proteasome (Saccharomyces cerevisiae, UniProt P25043); assay: IC50 determination with purified yeast 20S proteasome core particle (yCP), trypsin-like activity, fluorogenic AMC substrate; conditions: yCP 0.05 mg/mL, 100 mM Tris-HCl pH 7.5; 45 min incubation at room temperature; fluorogenic substrate 200 µM, trypsin-like (T-L); read-out: binding affinities for β2
T3 construct: purified yeast 20S proteasome core particle (yCP); host or cells: yeast
Experimental: as §1

## CC(C)C1C(=O)OC1C(=O)O (stereo not drawn) [Compound 1, 3-isopropyl-4-oxo-2-oxetanecarboxylic acid]
[1]
  IC50: 6.2 µM
[2]
  IC50: 625 µM
[3]
  IC50: 60 µM

— patent EP4180035A1, “NOVEL BETA-LACTONE INHIBITORS OF HYDROLYTIC ENZYMES AND THEIR MEDICAL AND NON MEDICAL USES” (Max-Planck-Gesellschaft zur Förderung der Wissenschaften …, priority 2021, dated 2023)
